Each block holds one compound with its values, some of them ahead of it.
Columns and labels:
Marinobacter nauticus = experiment: Antibiofilm activity against Marinobacter hydrocarbonoclasticus at 31.25 ug/ml incubated for 24 hrs by crystal violet staining based analysis relative to control; type: functional; conditions: dose 31.25 µg/ml
Candida albicans = experiment: Antibiofilm activity against Candida albicans assessed as reduction in biofilm formation at 200 ug/ml measured after 48 hrs by crystal violet staining based analysis relative to control; type: functional; parameters: scale not given: the % may be the effect or the level left; conditions: dose 200 µg/ml
Staphylococcus aureus [1] = experiment: Antibiofilm activity against methicillin-resistant Staphylococcus aureus CH 10850 at 50 ug/ml relative to control; type: functional; conditions: dose 50 µg/ml
[2] = tested on: Staphylococcus epidermidis; experiment: Antibiofilm activity against Staphylococcus epidermidis RP62A; type: functional
Streptococcus mutans [3] = experiment: Antibiofilm activity against Streptococcus mutans UA159 assessed as inhibition of biofilm formation; type: functional, organism-based
Staphylococcus aureus [4] = experiment: Antibiofilm activity against methicillin-resistant Staphylococcus aureus CH 10850 at 100 ug/ml relative to control; type: functional; conditions: dose 100 µg/ml
Staphylococcus aureus [5] = experiment: Antibiofilm activity against methicillin-resistant Staphylococcus aureus ATCC 6538 at 100 ug/ml incubated for 24 hrs by crystal violet staining based microplate reader method relative to control; type: functional; conditions: dose 100 µg/ml
Staphylococcus aureus [6] = experiment: Antibiofilm activity against Staphylococcus aureus ATCC 6538 at 100 ug/ml incubated for 24 hrs by crystal violet staining based microplate reader method relative to control; type: functional; conditions: dose 100 µg/ml
Staphylococcus aureus [7] = experiment: Antibiofilm activity against Staphylococcus aureus ATCC 25923 after 24 hrs by crystal violet staining based assay; type: functional, organism-based; conditions: ATCC 25923, 24 h
Staphylococcus aureus [8] = experiment: Antibiofilm activity against Staphylococcus aureus ATCC 6538 after 24 hrs by crystal violet staining based assay; type: functional, organism-based; conditions: ATCC 6538, 24 h
Pseudomonas aeruginosa = experiment: Antibiofilm activity against Pseudomonas aeruginosa ATCC 15442 after 24 hrs by crystal violet staining based assay; type: functional, organism-based; conditions: ATCC 15442, 24 h
[9] = tested on: Pseudooceanicola batsensis; experiment: Antibiofilm activity against Pseudooceanicola-batsensis at 31.25 ug/ml incubated for 48 hrs by crystal violet staining based analysis relative to control; type: functional; conditions: dose 31.25 µg/ml
Micrococcus luteus = experiment: Antibiofilm activity against Micrococcus luteus at 31.25 ug/ml incubated for 48 hrs by crystal violet staining based analysis relative to control; type: functional; conditions: dose 31.25 µg/ml
Staphylococcus aureus [10] = experiment: Antibiofilm activity against Staphylococcus aureus ATCC 6538 assessed as reduction in biofilm formation at 50 ug/ml measured after 24 hrs by crystal violet staining based analysis relative to control; type: functional; parameters: scale not given: the % may be the effect or the level left; conditions: dose 50 µg/ml
[11] = tested on: Staphylococcus epidermidis; experiment: Antibiofilm activity against […] incubated for 24 hrs; type: functional
Streptococcus mutans [12] = experiment: Antibiofilm activity against Streptococcus mutans UA159 assessed as inhibition of biofilm formation at 31.0 ug/ml relative to control; type: functional; parameters: scale not given: the % may be the effect or the level left; conditions: dose 31 µg/ml
Streptococcus mutans [13] = experiment: Antibiofilm activity against clinical isolate Streptococcus mutans 2.M7/4 assessed as inhibition of biofilm formation at 31.0 ug/ml relative to control; type: functional; parameters: scale not given: the % may be the effect or the level left; conditions: dose 31 µg/ml

Structure (SMILES): C/C(=C/C[C@@]12OC(C)(C)[C@H](Cl)C[C@]1(Cl)C(=O)c1c(O)cc(O)cc1C2=O)CC/C=C(\C)CO
- Activity (Marinobacter nauticus): 60.2%

Structure (SMILES): C/C=C/CCCC(C)/C(O)=C1\C(=O)[C@@H](C(C)O)N(C)C1=O (stereo partly specified)
- Activity (Candida albicans): 80%

Structure (SMILES): CC(=O)O[C@@H]1O[C@H](OC(C)=O)[C@H]2C(=O)[C@@H]([C@@]3(C)CCCC(C)(C)C3)CC[C@@H]12
- Activity (Staphylococcus aureus [1]): 97.7%

Structure (SMILES): CCCCCC1OC1C(O)CCCCCCCCCC(=O)O (stereo unspecified)
- MBIC [2]: 32 µg/mL

- IC50 (Streptococcus mutans [3]): 2.6 µM
Structure (SMILES): COc1ccc(CNC2=CC3=NCCc4cn(S(=O)(=O)c5ccc(C)cc5)c(c43)C2=O)cc1OC

Structure (SMILES): CCC1=C(C=O)[C@H](C(=O)OC)CC[C@@H]1[C@@]1(C)CCCC(C)(C)C1
- Activity (Staphylococcus aureus [4]): 90.7%

Structure (SMILES): CC(=O)O[C@H]1C[C@@H]2C(CO)=C[C@]3(C=C(C)C[C@@H](/C=C(\C)CCC=C(C)C)O3)O[C@@H]2C=C1C
- Activity (Staphylococcus aureus [5]): 50%

Structure (SMILES): CC(C)=CCC/C(C)=C/[C@@H]1CC(C)=C[C@]2(C=C(CO)[C@H]3CC(=O)C(C)=C[C@H]3O2)O1
- Activity (Staphylococcus aureus [6]): >75%

- IC50 (Streptococcus mutans [3]): 0.4 µM
Structure (SMILES): Cc1ccc(S(=O)(=O)n2cc3c4c2C(=O)C(NCCc2ccc5c(c2)COC5)=CC4=NCC3)cc1

- IC50 (Staphylococcus aureus [7]): 8.4 µM
- IC50 (Staphylococcus aureus [8]): 11.3 µM
Structure (SMILES): CC(C)(C)OC(=O)NCCn1cc(-c2nc(-c3c[nH]c4ncccc34)cs2)c2ccccc21

Structure (SMILES): CC(=O)OCC1=C[C@]2(C=C(C)C[C@@H](/C=C(\C)CCC=C(C)C)O2)O[C@@H]2C=C(C)C(=O)C[C@H]12
- Activity (Staphylococcus aureus [5]): 50%

- IC50 (Staphylococcus aureus [7]): 1.27 µM
- IC50 (Staphylococcus aureus [8]): 13.2 µM
- IC50 (Pseudomonas aeruginosa): 9.9 µM
Structure (SMILES): Cn1cc(-c2csc(-c3cn(CCN)c4ccc(F)cc34)n2)c2cccnc21

Structure (SMILES): CC(C)=CCC/C(C)=C\C[C@@]12OC(C)(C)[C@H](Cl)C[C@]1(Cl)C(=O)c1c(O)cc(O)cc1C2=O
- Activity [9]: 87.2%
- Activity (Micrococcus luteus): 88.6%

Structure (SMILES): COc1cc(-c2ccccn2)nc(C#N)c1SC
- Activity (Staphylococcus aureus [10]): >50%

Structure (SMILES): COC(=O)[C@H](C)c1c([C@@]2(C)CCCC(C)(C)C2)ccc2c1[C@H](O)OC2=O
- Activity (Staphylococcus aureus [1]): 97.8%

Structure (SMILES): C=C1CCC(Cl)C(C)(C)C1C[C@@]12OC(C)(C)[C@H](Cl)C[C@]1(Cl)C(=O)c1c(cc(O)c(C)c1O)C2=O (stereo partly specified)
- Activity (Marinobacter nauticus): 48.2%

Structure (SMILES): Cn1c(-c2nnc(-c3ccc(N)cc3)o2)cc(Br)c1Br
- MBIC [11]: 3.125 µg/mL

Structure (SMILES): C=C1CCC(Cl)C(C)(C)C1C[C@@]12OC(C)(C)[C@H](Cl)C=C1C(=O)c1c(cc(O)c(C)c1O)C2=O (stereo partly specified)
- Activity (Marinobacter nauticus): 33.7%

Structure (SMILES): COc1cc(-c2ccccn2)nc(/C=N/O)c1[S+](C)[O-] (stereo unspecified)
- Activity (Staphylococcus aureus [10]): >80%

Structure (SMILES): C=C1CCC(Br)C(C)(C)C1C[C@@]12OC(C)(C)[C@H](Cl)C=C1C(=O)c1c(O)cc(O)cc1C2=O (stereo partly specified)
- Activity [9]: 26.2%
- Activity (Micrococcus luteus): 100%
- Activity (Marinobacter nauticus): 59.3%

Structure (SMILES): C=C1CCC(Br)C(C)(C)C1C[C@@]12OC(C)(C)[C@H](Cl)C[C@]1(Cl)C(=O)c1c(O)cc(O)cc1C2=O (stereo partly specified)
- Activity [9]: 26.2%
- Activity (Micrococcus luteus): 100%
- Activity (Marinobacter nauticus): 59.3%

Structure (SMILES): CCCCCCCCC[C@H](CC(=O)NCCCN)N1CC(=O)N[C@@H](Cc2ccccc2)C1=O
- Activity (Streptococcus mutans [12]): 90%
- Activity (Streptococcus mutans [13]): 34.8%

Structure (SMILES): CCCCCCC(C)/C(O)=C1\C(=O)[C@H](C(C)O)N(C)C1=O (stereo partly specified)
- Activity (Candida albicans): 80%

Structure (SMILES): C[C@H]1C(=O)O[C@@H]2OC[C@@H]3CCC([C@@]4(C)CCCC(C)(C)C4)=C1[C@@H]32
- Activity (Staphylococcus aureus [4]): 85.4%

- IC50 (Staphylococcus aureus [7]): 0.4 µM
- IC50 (Staphylococcus aureus [8]): 51.6 µM
Structure (SMILES): COCCn1cc(-c2nc(-c3cn(C)c4ncccc34)cs2)c2cc(F)ccc21

Structure (SMILES): CC(C)=CCC/C(C)=C\C[C@@]12OC(C)(C)[C@H](Cl)C=C1C(=O)c1c(cc(O)c(C)c1O)C2=O
- Activity (Marinobacter nauticus): 23.4%

— ChEMBL document CHEMBL5352385, “Marine natural products and their synthetic analogs as promising antibiofilm agents for antibiotics discovery and development” (Eur J Med Chem, 2022)
